From ChEMBL document CHEMBL1201861, “Genomics of Drug Sensitity in Cancer screening data, Wellcome Trust Sanger Institute”

Tests used:
Assay in all cases: cells
Type in all cases: functional, cell-based, Homo sapiens
PF-382 = settings: Homo sapiens, PF-382
Description: SANGER: Inhibition of human PF-382 cell growth in a cell viability assay.

NCI-H1436 = settings: Homo sapiens, NCI-H1436;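 also: growth suppression of human NCI-H1436 cells, determined with a cell viability readout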
Description: SANGER: Inhibition of human NCI-H1436 cell growth in a cell viability assay.

EHEB = settings: Homo sapiens, EHEB;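 also: growth inhibition of human EHEB cells, read out with a cell viability assay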
Description: SANGER: Inhibition of human EHEB cell growth in a cell viability assay.

NCI-H661 = settings: Homo sapiens, NCI-H661;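 also: cell viability assay read-out, IC50 being the concentration that inhibits growth of the cells by half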
Description: SANGER: Inhibition of human NCI-H661 cell growth in a cell viability assay.

MCF7 = settings: Homo sapiens, MCF7;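 also: growth inhibition of human MCF7 cells, read out with a cell viability assay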
Description: SANGER: Inhibition of human MCF7 cell growth in a cell viability assay.

HSC-2 = settings: Homo sapiens, HSC-2;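 also: growth inhibition of human HSC-2 cells, read out by a cell viability assay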
Description: SANGER: Inhibition of human HSC-2 cell growth in a cell viability assay.

Daudi = settings: Homo sapiens, Daudi;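 also: growth inhibition of Daudi cells, read out by a viability assay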
Description: SANGER: Inhibition of human Daudi cell growth in a cell viability assay.

Ca9-22 = settings: Homo sapiens, Ca9-22;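 also: growth inhibition of Ca9-22 cells, read out with a cell viability assay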
Description: SANGER: Inhibition of human Ca9-22 cell growth in a cell viability assay.

NCI-H1651 = settings: Homo sapiens, NCI-H1651;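 also: Read-out is a cell viability assay, with IC50 expressing inhibition of NCI-H1651 cell growth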
Description: SANGER: Inhibition of human NCI-H1651 cell growth in a cell viability assay.

NCI-H2347 = settings: Homo sapiens, NCI-H2347;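 also: growth inhibition of the cell line, read out with a cell viability assay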
Description: SANGER: Inhibition of human NCI-H2347 cell growth in a cell viability assay.

Detroit 562 = settings: Homo sapiens, Detroit 562;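 also: growth inhibition of human Detroit 562 cells, read out by a cell viability assay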
Description: SANGER: Inhibition of human Detroit562 cell growth in a cell viability assay.

8505C = settings: Homo sapiens, 8505C
Description: SANGER: Inhibition of human 8505C cell growth in a cell viability assay.

AN3-CA = settings: Homo sapiens, AN3-CA;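 also: growth inhibition of human AN3-CA cells measured by a cell viability assay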
Description: SANGER: Inhibition of human AN3-CA cell growth in a cell viability assay.

LK-2 = settings: Homo sapiens, LK-2;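 also: growth inhibition of LK-2 cells, read out with a viability assay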
Description: SANGER: Inhibition of human LK-2 cell growth in a cell viability assay.

ChaGo-K-1 = settings: Homo sapiens, ChaGo-K-1;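 also: growth inhibition of ChaGo-K-1 cells, read out with a cell viability assay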
Description: SANGER: Inhibition of human ChaGo-K-1 cell growth in a cell viability assay.

NCI-H727 = settings: Homo sapiens, NCI-H727;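 also: growth inhibition of human NCI-H727 cells, read out with a cell viability assay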
Description: SANGER: Inhibition of human NCI-H727 cell growth in a cell viability assay.

KYSE-450 = settings: Homo sapiens, KYSE-450;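 also: cell growth inhibition measured by a viability assay in human KYSE-450 cells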
Description: SANGER: Inhibition of human KYSE-450 cell growth in a cell viability assay.

RO82-W-1 = settings: Homo sapiens, RO82-W-1;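 also: growth inhibition of human RO82-W-1 cells, measured with a cell viability assay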
Description: SANGER: Inhibition of human RO82-W-1 cell growth in a cell viability assay.

HGC-27 = settings: Homo sapiens, HGC-27;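 also: growth inhibition of human HGC-27 cells, read out in a cell viability assay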
Description: SANGER: Inhibition of human HGC-27 cell growth in a cell viability assay.

COLO-679 = settings: Homo sapiens, COLO-679
Description: SANGER: Inhibition of human COLO-679 cell growth in a cell viability assay.

SW756 = settings: Homo sapiens, SW756;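 also: growth inhibition of human SW756 cells, read out with a cell viability assay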
Description: SANGER: Inhibition of human SW756 cell growth in a cell viability assay.

SCC-25 = settings: Homo sapiens, SCC-25;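 also: growth inhibition of SCC-25 cells, measured with a cell viability assay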
Description: SANGER: Inhibition of human SCC-25 cell growth in a cell viability assay.

NCI-H1437 = settings: Homo sapiens, NCI-H1437;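 also: growth inhibition of human NCI-H1437 cells, read out by a cell viability assay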
Description: SANGER: Inhibition of human NCI-H1437 cell growth in a cell viability assay.

UACC-893 = settings: Homo sapiens, UACC-893
Description: SANGER: Inhibition of human UACC-893 cell growth in a cell viability assay.

OPM-2 = settings: Homo sapiens, OPM-2;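 also: growth of OPM-2 cells measured with a viability assay, IC50 for suppression of proliferation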
Description: SANGER: Inhibition of human OPM-2 cell growth in a cell viability assay.

UMUC3 = settings: Homo sapiens, UMUC3;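 also: growth inhibition of human UM-UC-3 cells, read out with a cell viability assay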
Description: SANGER: Inhibition of human UM-UC-3 cell growth in a cell viability assay.

5637 = settings: Homo sapiens
Description: SANGER: Inhibition of human 5637 cell growth in a cell viability assay.

NCI-H596 = settings: Homo sapiens, NCI-H596;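 also: growth inhibition of NCI-H596 cells, read out with a cell viability assay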
Description: SANGER: Inhibition of human NCI-H596 cell growth in a cell viability assay.

GDM-1 = settings: Homo sapiens, GDM-1;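 also: cell viability readout used to measure growth inhibition of human GDM-1 cells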
Description: SANGER: Inhibition of human GDM-1 cell growth in a cell viability assay.

TE-15 = settings: Homo sapiens, TE-15;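 also: cell viability readout of growth inhibition in TE-15 cells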
Description: SANGER: Inhibition of human TE-15 cell growth in a cell viability assay.

EVSA-T = settings: Homo sapiens, EVSA-T;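 also: growth inhibition of EVSA-T cells, read out with a cell viability assay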
Description: SANGER: Inhibition of human EVSA-T cell growth in a cell viability assay.

Hs-578T = settings: Homo sapiens, Hs-578T
Description: SANGER: Inhibition of human Hs-578-T cell growth in a cell viability assay.

JEG-3 = settings: Homo sapiens, JEG-3;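 also: growth inhibition of human JEG-3 cells, read out with a cell viability assay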
Description: SANGER: Inhibition of human JEG-3 cell growth in a cell viability assay.

PANC-03-27 = settings: Homo sapiens, PANC-03-27
Description: SANGER: Inhibition of human PANC-03-27 cell growth in a cell viability assay.

PFSK-1 = settings: Homo sapiens, PFSK-1;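 also: cell viability assay measuring how strongly compounds suppress growth of human PFSK-1 cells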
Description: SANGER: Inhibition of human PFSK-1 cell growth in a cell viability assay.

HuP-T3 = settings: Homo sapiens, HuP-T3;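 also: HuP-T3 cell growth inhibition, read out with a cell viability assay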
Description: SANGER: Inhibition of human HuP-T3 cell growth in a cell viability assay.

KYSE-70 cell line = settings: Homo sapiens, KYSE-70;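 also: cell viability assay read-out, with IC50 expressing suppression of KYSE-70 cell growth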
Description: SANGER: Inhibition of human KYSE-70 cell growth in a cell viability assay.

DMS-273 = settings: Homo sapiens, DMS-273
Description: SANGER: Inhibition of human DMS-273 cell growth in a cell viability assay.

CAKI-1 = settings: Homo sapiens, CAKI-1;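 also: growth inhibition of CAKI-1 cells, measured by a cell viability assay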
Description: SANGER: Inhibition of human CAKI-1 cell growth in a cell viability assay.

BOKU = settings: Homo sapiens, BOKU;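 also: growth inhibition of the human BOKU cell line, read out by a cell viability assay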
Description: SANGER: Inhibition of human BOKU cell growth in a cell viability assay.

T-24 = settings: Homo sapiens, T-24;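 also: growth inhibition of T-24 cells, read out with a cell viability assay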
Description: SANGER: Inhibition of human T-24 cell growth in a cell viability assay.

NCI-H1703 = settings: Homo sapiens, NCI-H1703;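 also: growth inhibition of NCI-H1703 cells, read out via a cell viability assay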
Description: SANGER: Inhibition of human NCI-H1703 cell growth in a cell viability assay.

HCC1806 = settings: Homo sapiens, HCC1806;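 also: growth inhibition of the cancer cell line, determined with a cell viability assay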
Description: SANGER: Inhibition of human HCC1806 cell growth in a cell viability assay.

NCI-H2141 = settings: Homo sapiens, NCI-H2141;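 also: growth inhibition of human NCI-H2141 cells, read out with a cell viability assay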
Description: SANGER: Inhibition of human NCI-H2141 cell growth in a cell viability assay.

SW626 = settings: Homo sapiens, SW626;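 also: growth inhibition of SW626 cells, measured with a cell viability assay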
Description: SANGER: Inhibition of human SW626 cell growth in a cell viability assay.

C=C(c1ccc(C(=O)O)cc1)c1cc2c(cc1C)C(C)(C)CCC2(C)C [BEXAROTENE]
IC50 (PF-382): > 8000 nM
IC50 (NCI-H1436): > 8000 nM
IC50 (EHEB): > 8000 nM
IC50 (NCI-H661): > 8000 nM
IC50 (MCF7): > 8000 nM
IC50 (HSC-2): > 8000 nM
IC50 (Daudi): > 8000 nM
IC50 (Ca9-22): > 8000 nM
IC50 (NCI-H1651): > 8000 nM
IC50 (NCI-H2347): > 8000 nM
IC50 (Detroit 562): > 8000 nM
IC50 (8505C): > 8000 nM
IC50 (AN3-CA): > 8000 nM
IC50 (LK-2): > 8000 nM
IC50 (ChaGo-K-1): > 8000 nM
IC50 (NCI-H727): > 8000 nM
IC50 (KYSE-450): > 8000 nM
IC50 (RO82-W-1): > 8000 nM
IC50 (HGC-27): > 8000 nM
IC50 (COLO-679): > 8000 nM
IC50 (SW756): > 8000 nM
IC50 (SCC-25): > 8000 nM
IC50 (NCI-H1437): > 8000 nM
IC50 (UACC-893): > 8000 nM
IC50 (OPM-2): > 8000 nM
IC50 (UMUC3): > 8000 nM
IC50 5637: > 8000 nM
IC50 (NCI-H596): > 8000 nM
IC50 (GDM-1): > 8000 nM
IC50 (TE-15): > 8000 nM
IC50 (EVSA-T): > 8000 nM
IC50 (Hs-578T): > 8000 nM
IC50 (JEG-3): > 8000 nM
IC50 (PANC-03-27): > 8000 nM
IC50 (PFSK-1): > 8000 nM
IC50 (HuP-T3): > 8000 nM
IC50 (KYSE-70 cell line): > 8000 nM
IC50 (DMS-273): > 8000 nM
IC50 (CAKI-1): > 8000 nM
IC50 (BOKU): > 8000 nM
IC50 (T-24): > 8000 nM
IC50 (NCI-H1703): > 8000 nM
IC50 (HCC1806): > 8000 nM
IC50 (NCI-H2141): > 8000 nM
IC50 (SW626): > 8000 nM

CCC/C=C/C=C/C(=O)O[C@H]1/C(=C/C(=O)OC)C[C@H]2C[C@H]([C@@H](C)O)OC(=O)C[C@H](O)C[C@@H]3C[C@H](OC(C)=O)C(C)(C)[C@](O)(C[C@@H]4C/C(=C/C(=O)OC)C[C@H](/C=C/C(C)(C)[C@]1(O)O2)O4)O3 [BRYOSTATIN 1]
IC50 (PF-382): > 8 nM
IC50 (NCI-H1436): > 8 nM
IC50 (EHEB): > 8 nM
IC50 (NCI-H661): > 8 nM
IC50 (MCF7): > 8 nM
IC50 (HSC-2): > 8 nM
IC50 (Daudi): > 8 nM
IC50 (Ca9-22): > 8 nM
IC50 (NCI-H1651): > 8 nM
IC50 (NCI-H2347): > 8 nM
IC50 (Detroit 562): > 8 nM
IC50 (8505C): > 8 nM
IC50 (AN3-CA): > 8 nM
IC50 (LK-2): > 8 nM
IC50 (ChaGo-K-1): > 8 nM
IC50 (NCI-H727): > 8 nM
IC50 (KYSE-450): > 8 nM
IC50 (RO82-W-1): > 8 nM
IC50 (HGC-27): > 8 nM
IC50 (COLO-679): > 8 nM
IC50 (SW756): > 8 nM
IC50 (SCC-25): > 8 nM
IC50 (NCI-H1437): > 8 nM
IC50 (UACC-893): > 8 nM
IC50 (OPM-2): > 8 nM
IC50 (UMUC3): > 8 nM
IC50 5637: > 8 nM
IC50 (NCI-H596): > 8 nM
IC50 (GDM-1): > 8 nM
IC50 (TE-15): > 8 nM
IC50 (EVSA-T): > 8 nM
IC50 (Hs-578T): > 8 nM
IC50 (JEG-3): > 8 nM
IC50 (PANC-03-27): > 8 nM
IC50 (PFSK-1): > 8 nM
IC50 (HuP-T3): > 8 nM
IC50 (KYSE-70 cell line): > 8 nM
IC50 (DMS-273): > 8 nM
IC50 (CAKI-1): > 8 nM
IC50 (BOKU): > 8 nM
IC50 (T-24): > 8 nM
IC50 (NCI-H1703): > 8 nM
IC50 (HCC1806): > 8 nM
IC50 (NCI-H2141): > 8 nM
IC50 (SW626): > 8 nM

COc1cccc2c1C(=O)c1c(O)c3c(c(O)c1C2=O)C[C@@](O)(C(=O)CO)C[C@@H]3O[C@H]1C[C@H](N)[C@H](O)[C@H](C)O1 [DOXORUBICIN]
IC50 (PF-382): 67.2 nM
IC50 (NCI-H1436): > 1020 nM
IC50 (EHEB): 113 nM
IC50 (NCI-H661): 49 nM
IC50 (MCF7): 11.7 nM
IC50 (HSC-2): 26.8 nM
IC50 (Daudi): 69 nM
IC50 (Ca9-22): 50.1 nM
IC50 (NCI-H1651): 11.8 nM
IC50 (NCI-H2347): 158 nM
IC50 (Detroit 562): 231 nM
IC50 (8505C): 19.6 nM
IC50 (AN3-CA): 72.3 nM
IC50 (LK-2): 581 nM
IC50 (ChaGo-K-1): 108 nM
IC50 (NCI-H727): 22.8 nM
IC50 (KYSE-450): 44.7 nM
IC50 (RO82-W-1): > 1020 nM
IC50 (HGC-27): 13.6 nM
IC50 (COLO-679): 16 nM
IC50 (SW756): 275 nM
IC50 (SCC-25): 154 nM
IC50 (NCI-H1437): 64.6 nM
IC50 (UACC-893): 522 nM
IC50 (OPM-2): 502 nM
IC50 (UMUC3): 86 nM
IC50 5637: 31.9 nM
IC50 (NCI-H596): 108 nM
IC50 (GDM-1): 160 nM
IC50 (TE-15): 24.1 nM
IC50 (EVSA-T): > 1020 nM
IC50 (Hs-578T): > 1020 nM
IC50 (JEG-3): 95.1 nM
IC50 (PANC-03-27): 28.2 nM
IC50 (PFSK-1): 678 nM
IC50 (HuP-T3): 166 nM
IC50 (KYSE-70 cell line): 225 nM
IC50 (DMS-273): 78.9 nM
IC50 (CAKI-1): 375 nM
IC50 (BOKU): 111 nM
IC50 (T-24): 245 nM
IC50 (NCI-H1703): 126 nM
IC50 (HCC1806): 75 nM
IC50 (NCI-H2141): 574 nM
IC50 (SW626): 112 nM
